Source: patent US10253012B2, “Method and apparatus for preparation of lactide using lactide purification process” (priority 2015, dated 2019)

Experiment: Solubility of lactide in different solvents
Assay type: physicochemical

CC1OC(=O)C(C)OC1=O (centres unmarked) [lactide]
solubility of lactide in ethanol (ethanol as first solvent, temperature maintained at 20 °C): ≤ 10 wt %
solubility of lactide in γ-butyrolactone (in words) (solvent γ-butyrolactone, no solid crystal formed in condenser at 5 °C): high solubility
